Data taken from patent publication US12594271B2, “Combination therapy for cancer” (Health Research, Inc., priority 2019, dated 2026).

Test system: MDSCs
Experiment: MDSC suppression assay: inhibition of T cell proliferation by in vitro generated MDSCs
Format: cell-based, mouse
Conditions: ATRA 10 μM at start of culture, side-by-side with BRQ 1 μM
Procedure: FIG. 2. […] (A) MDSCs were produced in vitro from mouse bone marrow cells using GM-CSF and G-CSF±BRQ (1 μM) or ATRA (10 μM) at the start of the 4-day culture. Cells tested for their ability to inhibit T cell proliferation (1:1 ratio), as in FIG. 5. Fresh BM=Uncultured bone marrow cells. (B) Similar to A, except that uridine (200 μM) was added to rescue the effect of BRQ. (C) Expression of IRF8 (upper) or SLFN4 (lower) was analyzed by qRT-PCR in Lin^− BM cells cultured as in A for 2 days. Data normalized to the vehicle.
In Vitro Development of MDSCs. Unfractionated mouse bone marrow cells were cultured in dishes with recombinant mouse G-CSF and recombinant mouse GM-CSF (40 ng/ml of each cytokine) for 96 hours to produce MDSCs, as described (Marigo et al. Immunity 32:790-802, 2010). After culture, cells were collected and analyzed by flow cytometry for the indicated cell surface markers. Uncultured or fresh bone marrow (BM) cells served as a negative control.
Cultured Cells Develop Potent Immunosuppressive Capacity. Using the methods described for FIG. 4, experiments were then performed to determine whether the cells generated from this BM culture system functionally behaved as MDSCs, based on their ability to inhibit T cell proliferation in vitro. To that end, fresh BM (i.e., no in vitro culture) or cultured BM cells (i.e., MDSCs at two different MDSC-to-T cell ratios of 1:1 or 1:2) were co-mixed in 96-well plates with CellTrace Violet (CTV)—stained syngeneic naïve splenocytes as a source of T cells and stimulated with or without soluble agonistic anti-CD3 monoclonal antibody (mAb) (1 μg/ml) for 72 hours. After co-culture, CTV dye dilution in the gated CD4^+ or CD8^+ T cell fractions within the splenocyte populations was analyzed by flow cytometry to determine the extent of proliferation based on dye dilution. In FIG. 5, top panels show CTV dye dilution, as determined by flow cytometry and depicted as a histogram; bottom panels indicate the percentage of proliferation, based on quantification of the histogram data. […]

CC1=C(/C=C/C(C)=C/C=C/C(C)=C/C(=O)O)C(C)(C)CCC1 [ATRA, all-trans retinoic acid]
ability of in vitro generated MDSCs to inhibit CD4+ or CD8+ T cell proliferation: BRQ is more effective than ATRA
